target: T1, human 11βHSD1 enzyme (Homo sapiens, UniProt P28845); assay: 11βHSD1 cortisone to cortisol conversion, competitive HTRF assay; type: biochemical; settings: human 11-βHSD; test concentration of 30 μM of compound
T1 construct: baculovirus expressed N terminal 6-His tagged full length human 11βHSD1 enzyme; 6-His (N); made in house
Procedure, shortened: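 Enzyme was baculovirus-expressed, N-terminal 6-His-tagged full-length human 11βHSD1, purified on a copper chelate column. Compounds were added in buffer containing 1% DMSO at 10-fold final concentration.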

T1 sequence (P28845 whole entry): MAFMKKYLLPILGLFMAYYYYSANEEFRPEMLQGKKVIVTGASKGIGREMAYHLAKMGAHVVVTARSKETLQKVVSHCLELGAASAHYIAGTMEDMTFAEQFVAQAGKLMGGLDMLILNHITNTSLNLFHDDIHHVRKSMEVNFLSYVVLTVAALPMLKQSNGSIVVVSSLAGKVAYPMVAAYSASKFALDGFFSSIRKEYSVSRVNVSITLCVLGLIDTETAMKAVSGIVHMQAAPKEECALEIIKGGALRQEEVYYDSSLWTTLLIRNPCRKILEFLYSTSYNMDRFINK

Row | SMILES | inhibition at 30 µM
1 | O=C(N[C@H]1C2CC3CC1C[C@@](O)(C3)C2)c1cnc(N2CCC2)nc1C1CC1 [Example 53, 2-(azetidin-1-yl)-4-cyclopropyl-N-[(2r,5s)-5-hydroxyadamantan-2-yl]pyrimidine-5-carboxamide] | 102%
2 | Cc1ncc(C(=O)N[C@H]2C3CC4CC2C[C@@](O)(C4)C3)c(CC(C)(C)C)n1 [Example 193, 4-(2,2-Dimethylpropyl)-N-[(2r,5s)-5-hydroxyadamantan-2-yl]-2-methylpyrimidine-5-carboxamide] | 102%
3 | CC(C)(C)c1nc(N2CCOCC2)ncc1C(=O)NC1C2CC3CC(C2)CC1C3 (centres unmarked) [Example 14, N-(2-Adamantyl)-4-tert-butyl-2-morpholin-4-ylpyrimidine-5-carboxamide] | 108%
4 | O=C(N[C@H]1C2CC3CC1C[C@@](O)(C3)C2)c1cnc(N2CC(F)(F)C2)nc1N1CC(F)(F)C1 [Example 200, 2,4-bis(3,3-difluoroazetidin-1-yl)-N-[(2r,5s)-5-hydroxyadamantan-2-yl]pyrimidine-5-carboxamide] | 52.8%
5 | C[C@@H]1CN(CCNc2ncc(C(=O)N[C@H]3C4CC5CC3C[C@@](O)(C5)C4)c(C3CCCC3)n2)C[C@H](C)O1 [Example 148, 4-cyclopentyl-2-({2-[(2R,6S)-2,6-dimethylmorpholin-4-yl]ethyl}amino)-N-[(2r,5s)-5-hydroxytricyclo[3.3.1.13,7]dec-2-yl]pyrimidine-5-carboxamide] | 102%
6 | O=C(N[C@H]1C2CC3CC1C[C@@](O)(C3)C2)c1cnc(N2CCOC(CO)C2)nc1C1CCC1 (some centres unmarked) [Example 93, 4-cyclobutyl-N-[(2r,5s)-5-hydroxyadamantan-2-yl]-2-[2-(hydroxymethyl)morpholin-4-yl]pyrimidine-5-carboxamide] | 93.1%
7 | O=C(N[C@H]1C2CC3CC1C[C@@](O)(C3)C2)c1cnc(N2CC(F)(F)C2)nc1C1CC1 [Example 52, 4-cyclopropyl-2-(3,3-difluoroazetidin-1-yl)-N-[(2r,5s)-5-hydroxyadamantan-2-yl]pyrimidine-5-carboxamide] | 92.5%
8 | CNc1ncc(C(=O)N[C@H]2C3CC4CC2C[C@@](O)(C4)C3)c([C@@H]2CCCO2)n1 [Example 178, N-[(2r,5s)-5-hydroxyadamantan-2-yl]-2-methylamino-4-[(2S)-oxolan-2-yl]pyrimidine-5-carboxamide] | 95.3%
9 | O=C(N[C@H]1C2CC3CC1C[C@@](O)(C3)C2)c1cnc(NC2CC2)nc1C1CC1 [Example 56, 4-cyclopropyl-2-(cyclopropylamino)-N-[(2r,5s)-5-hydroxyadamantan-2-yl]pyrimidine-5-carboxamide] | 90.2%
10 | CC(C)Oc1ncc(C(=O)N[C@H]2C3CC4CC2C[C@@](O)(C4)C3)c(C2CCCC2)n1 [Example 110, 4-cyclopentyl-N-[(2r,5s)-5-hydroxyadamantan-2-yl]-2-propan-2-yloxypyrimidine-5-carboxamide] | 100%
11 | COc1nc(OC2CCC2)ncc1C(=O)N[C@H]1C2CC3CC1C[C@@](O)(C3)C2 [Example 208, 2-(cyclobutyloxy)-N-[(2r,5s)-5-hydroxytricyclo[3.3.1.13,7]dec-2-yl]-4-methoxypyrimidine-5-carboxamide] | 102%
12 | O=C(N[C@H]1C2CC3CC1C[C@@](O)(C3)C2)c1cnc(NC2COC2)nc1[C@H]1CCCO1 [Example 173, N-[(2r,5s)-5-hydroxyadamantan-2-yl]-2-(oxetan-3-ylamino)-4-[(2R)-oxolan-2-yl]pyrimidine-5-carboxamide] | 101%
13 | CC(C)Nc1ncc(C(=O)N[C@H]2C3CC4CC2C[C@@](O)(C4)C3)c(C2CC2)n1 [Example 64, 4-cyclopropyl-N-[(2r,5s)-5-hydroxyadamantan-2-yl]-2-(isopropylamino)pyrimidine-5-carboxamide] | 95.9%
14 | O=C(N[C@H]1C2CC3CC1C[C@@](O)(C3)C2)c1cnc(NC2CCS(=O)(=O)CC2)nc1C1CC1 [Example 68, 4-cyclopropyl-2-[(1,1-dioxidotetrahydro-2H-thiopyran-4-yl)amino]-N-[(2r,5s)-5-hydroxyadamantan-2-yl]pyrimidine-5-carboxamide] | 98.3%
15 | CN(C)c1ncc(C(=O)N[C@H]2C3CC4CC2C[C@@](O)(C4)C3)c(N(C)C)n1 [Example 199, 2,4-bis(dimethylamino)-N-[(2r,5s)-5-hydroxyadamantan-2-yl]pyrimidine-5-carboxamide] | 96.8%
16 | COc1nc(NC2CC2)ncc1C(=O)N[C@H]1C2CC3CC1C[C@@](O)(C3)C2 [Example 206, 2-(cyclopropylamino)-N-[(2r,5s)-5-hydroxytricyclo[3.3.1.13,7]dec-2-yl]-4-methoxypyrimidine-5-carboxamide] | 105%
17 | C[C@@H]1CN(c2ncc(C(=O)N3CCC(c4cccnc4)C3)c(C3CC3)n2)C[C@H](C)O1 (stereo partly drawn) [Example 81, (4-cyclopropyl-2-((2S,6R)-2,6-dimethylmorpholino)pyrimidin-5-yl)(3-(pyridin-3-yl)pyrrolidin-1-yl)methanone] | 100%

Row | SMILES | inhibition at 30 µM
18 | O=C(N[C@H]1C2CC3CC1C[C@@](O)(C3)C2)c1cnc(NCCN2CCOCC2)nc1C1CCCC1 [Example 147, 4-cyclopentyl-N-[(2r,5s)-5-hydroxytricyclo[3.3.1.13,7]dec-2-yl]-2-[(2-morpholin-4-ylethyl)amino]pyrimidine-5-carboxamide] | 103%
19 | C[C@@H]1CN(c2ncc(C(=O)N[C@H]3C4CC5CC3C[C@@](O)(C5)C4)c([C@H]3CCCO3)n2)C[C@H](C)N1 [Example 172, 2-[(3S,5R)-3,5-dimethylpiperazin-1-yl]-N-[(2r,5s)-5-hydroxyadamantan-2-yl]-4-[(2R)-oxolan-2-yl]pyrimidine-5-carboxamide] | 97.2%
20 | CN1CCN(c2ncc(C(=O)N[C@H]3C4CC5CC3C[C@@](O)(C5)C4)c(C3CCCC3)n2)CC1=O [Example 128, 4-cyclopentyl-N-[(2r,5s)-5-hydroxyadamantan-2-yl]-2-(4-methyl-3-oxopiperazin-1-yl)pyrimidine-5-carboxamide] | 99.1%
21 | O=C(N[C@H]1C2CC3CC1C[C@@](O)(C3)C2)c1cnc(NC2CCOCC2)nc1[C@H]1CCCO1 [Example 174, N-[(2r,5s)-5-hydroxyadamantan-2-yl]-2-(oxan-4-ylamino)-4-[(2R)-oxolan-2-yl]pyrimidine-5-carboxamide] | 95%
22 | O=C(N[C@H]1C2CC3CC1C[C@@](O)(C3)C2)c1cnc(OC2CCC2)nc1C1CCCC1 [Example 111, 2-cyclobutyloxy-4-cyclopentyl-N-[(2r,5s)-5-hydroxyadamantan-2-yl]pyrimidine-5-carboxamide] | 108%
23 | CCCSc1ncc(C(=O)N[C@H]2C3CC4CC2C[C@@](O)(C4)C3)c(N(C)C)n1 [Example 18, 4-Dimethylamino-N-[(2r,5s)-5-hydroxyadamantan-2-yl]-2-propylsulfanylpyrimidine-5-carboxamide] | 98.5%
24 | COc1nc(N2C[C@@H](C)O[C@@H](C)C2)ncc1C(=O)N[C@H]1C2CC3CC1C[C@@](O)(C3)C2 [Example 205, 2-[(2R,6S)-2,6-Dimethylmorpholin-4-yl]-N-[(2r,5 s)-5-hydroxytricyclo[3.3.1.13.7]dec-2-yl]-4-methoxypyrimidine-5-carboxamide] | 102%
25 | O=C(N[C@H]1C2CC3CC1C[C@@](O)(C3)C2)c1cnc(NCCN2CCOCC2)nc1C1CC1 [Example 72, 4-cyclopropyl-N-[(2r,5s)-5-hydroxyadamantan-2-yl]-2-[(2-morpholin-4-ylethyl)amino]pyrimidine-5-carboxamide] | 91.6%
26 | O=C(N[C@H]1C2CC3CC1C[C@@](O)(C3)C2)c1cnc(N2CCOCC2CO)nc1C1CC1 (some centres unmarked) [Example 60, 4-cyclopropyl-N-[(2r,5s)-5-hydroxyadamantan-2-yl]-2-[3-(hydroxymethyl)morpholin-4-yl]pyrimidine-5-carboxamide] | 95.1%
27 | CC(C)Oc1ncc(C(=O)N[C@H]2C3CC4CC2C[C@@](O)(C4)C3)c([C@@H]2CCCO2)n1 [Example 181] | 95%
28 | O=C(N[C@H]1C2CC3CC1C[C@@](O)(C3)C2)c1cnc(N2CCS(=O)(=O)CC2)nc1C1CCCC1 [Example 116, 4-Cyclopentyl-2-(1,1-dioxo-1,4-thiazinan-4-yl)-N-[(2r,5s)-5-hydroxyadamantan-2-yl]pyrimidine-5-carboxamide] | 98.1%
29 | O=C(N[C@H]1C2CC3CC1C[C@@](O)(C3)C2)c1cnc(N2CCOCC2CO)nc1C1CCCC1 (some centres unmarked) [Example 141, 4-cyclopentyl-N-[(2r,5s)-5-hydroxyadamantan-2-yl]-2-[3-(hydroxymethyl)morpholin-4-yl]pyrimidine-5-carboxamide] | 105%
30 | CCCSc1ncc(C(=O)N[C@H]2C3CC4CC2C[C@@](O)(C4)C3)c(SCCC)n1 [Example 16, N-[(2r,5s)-5-hydroxyadamantan-2-yl]-2,4-bis(propylsulfanyl)pyrimidine-5-carboxamide] | 95.8%
31 | O=C(N[C@H]1C2CC3CC1C[C@@](O)(C3)C2)c1cnc(N2C[C@@H]3C[C@H]2CO3)nc1C1CC1 [Example 58, 4-cyclopropyl-N-[(2r,5s)-5-hydroxyadamantan-2-yl]-2-[(1S,4S)-2-oxa-5-azabicyclo[2.2.1]hept-5-yl]pyrimidine-5-carboxamide] | 99.6%
32 | O=C(N[C@H]1C2CC3CC1C[C@@](O)(C3)C2)c1cnc(OC2CCCC2)nc1C1CCCC1 [Example 112, 4-cyclopentyl-2-cyclopentyloxy-N-[(2r,Ss)-5-hydroxyadamantan-2-yl]pyrimidine-5-carboxamide] | 104%
33 | CN(C)c1ncc(C(=O)N[C@H]2C3CC4CC2C[C@@](O)(C4)C3)c(C2CCCC2)n1 [Example 133, 4-cyclopentyl-2-dimethylamino-N-[(2r,5s)-5-hydroxyadamantan-2-yl]pyrimidine-5-carboxamide] | 94%

same assay, conditions: recombinant N terminal 6-His tagged full length human 11βHSD1; cortisone 160 nM; 25 minutes at 37° C.

Row | SMILES | IC50
34 | CCCSc1ncc(C(=O)N[C@H]2C3CC4CC2C[C@@](O)(C4)C3)c(N(C)C)n1 [Example 18, 4-Dimethylamino-N-[(2r,5s)-5-hydroxyadamantan-2-yl]-2-propylsulfanylpyrimidine-5-carboxamide] | 3 nM
35 | CCCSc1ncc(C(=O)N[C@H]2C3CC4CC2C[C@@](O)(C4)C3)c(SCCC)n1 [Example 16, N-[(2r,5s)-5-hydroxyadamantan-2-yl]-2,4-bis(propylsulfanyl)pyrimidine-5-carboxamide] | 2 nM
